This note sets out measurements from ChEMBL document CHEMBL5705888, “Substrate specificity and inhibitors of LRRK2, a protein kinase mutated in Parkinson's disease” (Biochem J, 2009).

For test [1], the target named is Tyrosine-protein kinase Yes (Homo sapiens) (UniProt P07947). Briefly: Inhibition of YES1 (unknown origin) at 1 uM incubated for 30 mins in presence of [gamma-33P]ATP by multidrop micro reagent based assay relative to control; values are per cent of control.
Test [2] has as its target Serine/threonine-protein kinase PAK 5 (Homo sapiens) (UniProt Q9P286). Briefly: Inhibition of PAK5 (unknown origin) at 1 uM incubated for 30 mins in presence of [gamma-33P]ATP by multidrop micro reagent based assay relative to control; values are per cent of control.
Test [3] has as its target T1, Inhibitor of nuclear factor kappa-B kinase subunit beta (Homo sapiens) (UniProt O14920).
T1 sequence (whole entry): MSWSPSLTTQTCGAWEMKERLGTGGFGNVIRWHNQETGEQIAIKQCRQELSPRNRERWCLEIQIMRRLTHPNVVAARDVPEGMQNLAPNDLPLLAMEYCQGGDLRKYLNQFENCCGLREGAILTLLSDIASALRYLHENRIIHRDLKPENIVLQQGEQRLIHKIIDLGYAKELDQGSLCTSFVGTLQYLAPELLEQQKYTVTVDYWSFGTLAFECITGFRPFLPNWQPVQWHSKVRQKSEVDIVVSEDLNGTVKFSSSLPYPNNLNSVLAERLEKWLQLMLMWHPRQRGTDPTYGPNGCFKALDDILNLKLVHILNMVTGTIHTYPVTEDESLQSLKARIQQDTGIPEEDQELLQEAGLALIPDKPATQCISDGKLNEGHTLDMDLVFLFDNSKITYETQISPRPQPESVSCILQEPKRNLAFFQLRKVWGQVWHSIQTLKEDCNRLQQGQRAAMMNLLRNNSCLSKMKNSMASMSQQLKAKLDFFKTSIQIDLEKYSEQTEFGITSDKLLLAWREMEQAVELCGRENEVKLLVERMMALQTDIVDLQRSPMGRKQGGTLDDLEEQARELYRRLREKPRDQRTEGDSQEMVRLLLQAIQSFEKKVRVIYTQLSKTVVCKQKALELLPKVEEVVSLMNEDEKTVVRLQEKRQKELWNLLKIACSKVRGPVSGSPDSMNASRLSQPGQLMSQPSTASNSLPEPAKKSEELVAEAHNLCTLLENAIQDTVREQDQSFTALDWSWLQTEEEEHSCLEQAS
Nature of the test: Inhibition of IKKbeta (unknown origin) at 1 uM incubated for 30 mins in presence of [gamma-33P]ATP by multidrop micro reagent based assay relative to control; values are per cent of control.

The target of test [4] is T2, Leucine-rich repeat serine/threonine-protein kinase 2 (Homo sapiens, UniProt Q5S007). Briefly: Inhibition of GST-tagged LRRK2 (1326 to 2527 residues) (unknown origin) using peptide as substrate incubated for 15 mins in presence of ATP by immunoblotting analysis. Background: In western blotting, separated proteins are transferred to a membrane and probed.
Test [5] addresses T2, Leucine-rich repeat serine/threonine-protein kinase 2. Briefly: Inhibition of LRRK2 (unknown origin) at 1 uM incubated for 30 mins in presence of [gamma-33P]ATP by multidrop micro reagent based assay relative to control; values are per cent of control.
Test [6] deals with Calcium/calmodulin-dependent protein kinase type 1 (Homo sapiens) (UniProt Q14012). Briefly: Inhibition of CaMK1 (unknown origin) at 1 uM incubated for 30 mins in presence of [gamma-33P]ATP by multidrop micro reagent based assay relative to control; values are per cent of control.
For test [7], the target named is Calcium/calmodulin-dependent protein kinase kinase 2 (Homo sapiens) (UniProt Q96RR4). Nature of the test: Inhibition of CaMKKbeta (unknown origin) at 1 uM incubated for 30 mins in presence of [gamma-33P]ATP by multidrop micro reagent based assay relative to control; values are per cent of control.
The target in test [8] is Tyrosine-protein kinase BTK (Homo sapiens) (UniProt Q06187). Nature of the test: Inhibition of BTK (unknown origin) at 1 uM incubated for 30 mins in presence of [gamma-33P]ATP by multidrop micro reagent based assay relative to control.
Test [9] addresses Serine/threonine-protein kinase Chk2 (Homo sapiens) (UniProt O96017). Nature of the test: Inhibition of CHK2 (unknown origin) at 1 uM incubated for 30 mins in presence of [gamma-33P]ATP by multidrop micro reagent based assay relative to control; values are per cent of control.
Test [10] has as its target Maternal embryonic leucine zipper kinase (Homo sapiens) (UniProt Q14680). Nature of the test: Inhibition of MELK (unknown origin) at 1 uM incubated for 30 mins in presence of [gamma-33P]ATP by multidrop micro reagent based assay relative to control; values are per cent of control.
Test [11] addresses T3, Serine/threonine-protein kinase TBK1 (Homo sapiens) (UniProt Q9UHD2).
T3 sequence (whole entry): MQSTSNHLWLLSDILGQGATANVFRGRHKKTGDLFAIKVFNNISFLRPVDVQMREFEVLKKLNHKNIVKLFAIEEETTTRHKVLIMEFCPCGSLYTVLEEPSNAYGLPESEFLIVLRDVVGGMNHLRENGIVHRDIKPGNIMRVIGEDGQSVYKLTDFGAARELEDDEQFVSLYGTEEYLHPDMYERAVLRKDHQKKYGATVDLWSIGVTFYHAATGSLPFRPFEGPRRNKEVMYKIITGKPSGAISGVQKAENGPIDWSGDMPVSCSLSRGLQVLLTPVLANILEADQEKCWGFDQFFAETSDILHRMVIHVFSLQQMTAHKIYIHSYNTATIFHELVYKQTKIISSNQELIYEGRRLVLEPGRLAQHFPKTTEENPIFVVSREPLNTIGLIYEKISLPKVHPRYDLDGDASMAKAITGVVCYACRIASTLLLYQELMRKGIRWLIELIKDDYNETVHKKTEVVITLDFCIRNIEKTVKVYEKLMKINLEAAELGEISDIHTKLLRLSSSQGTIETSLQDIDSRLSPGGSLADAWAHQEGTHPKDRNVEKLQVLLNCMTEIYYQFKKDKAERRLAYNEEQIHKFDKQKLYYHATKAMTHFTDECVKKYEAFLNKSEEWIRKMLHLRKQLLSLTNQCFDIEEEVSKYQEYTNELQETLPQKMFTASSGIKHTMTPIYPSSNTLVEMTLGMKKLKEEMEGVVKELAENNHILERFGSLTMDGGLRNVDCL
Nature of the test: Inhibition of TBK1 (unknown origin) at 1 uM incubated for 30 mins in presence of [gamma-33P]ATP by multidrop micro reagent based assay relative to control; values are per cent of control.

Test [12] addresses Serine/threonine-protein kinase N2 (Homo sapiens) (UniProt Q16513). Nature of the test: Inhibition of PRK2 (unknown origin) at 1 uM incubated for 30 mins in presence of [gamma-33P]ATP by multidrop micro reagent based assay relative to control; values are per cent of control.

Sequence of Serine/threonine-protein kinase N2 (Homo sapiens) (Q16513 whole entry, looked up): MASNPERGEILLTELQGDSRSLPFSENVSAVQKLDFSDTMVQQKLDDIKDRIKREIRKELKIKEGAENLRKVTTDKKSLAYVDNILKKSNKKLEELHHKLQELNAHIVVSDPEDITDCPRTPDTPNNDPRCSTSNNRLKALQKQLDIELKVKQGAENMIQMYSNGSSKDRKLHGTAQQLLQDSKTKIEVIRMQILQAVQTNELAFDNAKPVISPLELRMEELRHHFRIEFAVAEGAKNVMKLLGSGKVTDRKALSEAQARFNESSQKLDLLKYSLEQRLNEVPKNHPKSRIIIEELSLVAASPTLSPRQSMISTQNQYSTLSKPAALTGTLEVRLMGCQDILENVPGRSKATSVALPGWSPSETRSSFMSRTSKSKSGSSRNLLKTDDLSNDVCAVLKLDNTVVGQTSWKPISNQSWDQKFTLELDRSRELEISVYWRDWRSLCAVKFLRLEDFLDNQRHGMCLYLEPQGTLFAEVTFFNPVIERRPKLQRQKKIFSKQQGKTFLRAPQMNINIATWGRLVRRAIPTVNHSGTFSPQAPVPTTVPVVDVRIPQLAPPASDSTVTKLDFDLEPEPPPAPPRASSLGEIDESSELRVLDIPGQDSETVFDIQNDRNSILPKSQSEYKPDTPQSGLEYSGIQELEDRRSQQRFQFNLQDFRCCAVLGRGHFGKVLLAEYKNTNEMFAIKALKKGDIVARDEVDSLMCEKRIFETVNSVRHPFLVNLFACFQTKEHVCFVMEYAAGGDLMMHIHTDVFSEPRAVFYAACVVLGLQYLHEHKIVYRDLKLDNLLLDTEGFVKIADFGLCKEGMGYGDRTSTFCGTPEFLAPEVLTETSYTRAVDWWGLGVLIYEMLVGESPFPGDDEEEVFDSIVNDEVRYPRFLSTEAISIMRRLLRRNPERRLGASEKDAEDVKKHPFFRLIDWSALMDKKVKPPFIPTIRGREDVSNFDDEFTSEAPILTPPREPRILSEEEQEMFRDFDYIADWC
Sequence of Calcium/calmodulin-dependent protein kinase kinase 2 (Homo sapiens) (Q96RR4 2-588 limits assumed): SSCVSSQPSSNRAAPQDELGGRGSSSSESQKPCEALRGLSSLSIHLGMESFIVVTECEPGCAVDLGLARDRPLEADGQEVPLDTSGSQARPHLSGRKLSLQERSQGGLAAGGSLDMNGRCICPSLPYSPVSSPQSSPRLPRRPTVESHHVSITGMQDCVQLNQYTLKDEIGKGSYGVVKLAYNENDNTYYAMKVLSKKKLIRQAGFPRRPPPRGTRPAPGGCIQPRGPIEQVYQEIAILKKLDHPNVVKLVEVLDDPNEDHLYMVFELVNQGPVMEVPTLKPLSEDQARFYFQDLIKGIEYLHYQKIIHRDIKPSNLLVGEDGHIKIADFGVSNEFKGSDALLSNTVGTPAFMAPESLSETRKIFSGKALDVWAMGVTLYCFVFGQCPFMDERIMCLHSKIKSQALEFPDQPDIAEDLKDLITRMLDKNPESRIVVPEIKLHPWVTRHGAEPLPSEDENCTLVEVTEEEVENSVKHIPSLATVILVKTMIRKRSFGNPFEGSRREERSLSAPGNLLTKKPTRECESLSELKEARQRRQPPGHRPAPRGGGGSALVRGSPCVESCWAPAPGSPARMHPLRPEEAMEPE
Sequence of Tyrosine-protein kinase Yes (Homo sapiens) (P07947 2-543 limits assumed): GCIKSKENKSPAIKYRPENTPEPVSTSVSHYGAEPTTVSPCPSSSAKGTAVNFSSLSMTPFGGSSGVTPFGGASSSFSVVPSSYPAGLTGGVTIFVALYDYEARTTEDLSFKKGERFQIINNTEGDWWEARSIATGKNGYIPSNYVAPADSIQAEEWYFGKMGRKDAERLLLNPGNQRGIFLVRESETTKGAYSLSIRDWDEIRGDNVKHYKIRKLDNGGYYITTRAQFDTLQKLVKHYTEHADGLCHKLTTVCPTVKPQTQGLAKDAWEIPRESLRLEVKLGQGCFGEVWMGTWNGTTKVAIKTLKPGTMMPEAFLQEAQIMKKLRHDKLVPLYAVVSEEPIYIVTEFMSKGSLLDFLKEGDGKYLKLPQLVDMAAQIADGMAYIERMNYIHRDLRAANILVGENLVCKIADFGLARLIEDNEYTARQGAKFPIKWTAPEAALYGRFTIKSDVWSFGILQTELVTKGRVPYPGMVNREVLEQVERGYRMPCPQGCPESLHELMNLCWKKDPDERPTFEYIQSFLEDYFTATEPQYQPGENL
Sequence of Serine/threonine-protein kinase Chk2 (Homo sapiens) (O96017 whole entry): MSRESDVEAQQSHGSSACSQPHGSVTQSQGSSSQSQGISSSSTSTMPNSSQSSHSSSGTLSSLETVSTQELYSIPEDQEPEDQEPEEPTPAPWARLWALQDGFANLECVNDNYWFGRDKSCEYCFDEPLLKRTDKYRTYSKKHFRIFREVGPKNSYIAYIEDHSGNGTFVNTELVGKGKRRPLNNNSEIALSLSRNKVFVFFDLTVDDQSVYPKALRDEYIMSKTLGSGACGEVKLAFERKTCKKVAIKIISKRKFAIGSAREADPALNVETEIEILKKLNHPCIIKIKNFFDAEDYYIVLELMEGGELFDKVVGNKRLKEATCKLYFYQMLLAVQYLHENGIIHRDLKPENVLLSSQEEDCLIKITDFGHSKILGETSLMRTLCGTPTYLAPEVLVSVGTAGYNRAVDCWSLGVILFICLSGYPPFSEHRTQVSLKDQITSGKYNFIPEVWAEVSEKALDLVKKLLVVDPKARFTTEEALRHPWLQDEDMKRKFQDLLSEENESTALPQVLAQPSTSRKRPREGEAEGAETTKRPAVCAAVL
Sequence of Serine/threonine-protein kinase PAK 5 (Homo sapiens) (Q9P286 whole entry, looked up): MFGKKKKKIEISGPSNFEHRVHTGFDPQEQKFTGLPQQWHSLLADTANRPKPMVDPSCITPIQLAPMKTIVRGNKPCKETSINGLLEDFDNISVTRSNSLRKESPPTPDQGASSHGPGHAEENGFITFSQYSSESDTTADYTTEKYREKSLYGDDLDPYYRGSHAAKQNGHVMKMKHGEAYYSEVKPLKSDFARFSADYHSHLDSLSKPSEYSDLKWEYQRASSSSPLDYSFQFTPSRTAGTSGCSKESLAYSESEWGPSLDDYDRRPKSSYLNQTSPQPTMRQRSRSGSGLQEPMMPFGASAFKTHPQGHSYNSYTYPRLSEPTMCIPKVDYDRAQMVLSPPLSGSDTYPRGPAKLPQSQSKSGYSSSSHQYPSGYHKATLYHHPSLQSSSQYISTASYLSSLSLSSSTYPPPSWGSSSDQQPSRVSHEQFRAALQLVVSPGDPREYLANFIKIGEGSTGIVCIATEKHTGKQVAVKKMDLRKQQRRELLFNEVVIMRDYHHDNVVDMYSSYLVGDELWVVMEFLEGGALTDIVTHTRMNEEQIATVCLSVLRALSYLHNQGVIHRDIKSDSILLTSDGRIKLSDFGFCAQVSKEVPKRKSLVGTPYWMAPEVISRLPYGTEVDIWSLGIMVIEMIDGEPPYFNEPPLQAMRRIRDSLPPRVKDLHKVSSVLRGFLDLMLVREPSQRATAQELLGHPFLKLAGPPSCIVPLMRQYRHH
Sequence of Tyrosine-protein kinase BTK (Homo sapiens) (Q06187 whole entry): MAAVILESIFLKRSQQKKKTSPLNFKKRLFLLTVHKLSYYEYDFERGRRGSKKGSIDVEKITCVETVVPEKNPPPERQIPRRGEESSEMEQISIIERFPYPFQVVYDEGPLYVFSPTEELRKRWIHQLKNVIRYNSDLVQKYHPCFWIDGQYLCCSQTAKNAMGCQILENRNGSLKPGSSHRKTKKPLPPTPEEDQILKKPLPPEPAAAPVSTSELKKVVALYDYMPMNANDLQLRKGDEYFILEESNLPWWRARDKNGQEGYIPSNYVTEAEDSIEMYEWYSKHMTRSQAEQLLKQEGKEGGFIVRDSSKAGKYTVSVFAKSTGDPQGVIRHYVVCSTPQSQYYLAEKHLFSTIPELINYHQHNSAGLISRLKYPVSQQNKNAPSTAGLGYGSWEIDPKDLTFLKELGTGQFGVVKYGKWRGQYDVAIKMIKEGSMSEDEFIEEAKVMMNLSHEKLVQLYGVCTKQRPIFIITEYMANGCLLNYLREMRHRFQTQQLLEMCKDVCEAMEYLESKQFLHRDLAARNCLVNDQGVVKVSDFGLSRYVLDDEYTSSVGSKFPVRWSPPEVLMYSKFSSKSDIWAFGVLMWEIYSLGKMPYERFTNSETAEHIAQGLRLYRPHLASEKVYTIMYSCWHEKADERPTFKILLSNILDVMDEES
Sequence of Maternal embryonic leucine zipper kinase (Homo sapiens) (Q14680 whole entry, looked up): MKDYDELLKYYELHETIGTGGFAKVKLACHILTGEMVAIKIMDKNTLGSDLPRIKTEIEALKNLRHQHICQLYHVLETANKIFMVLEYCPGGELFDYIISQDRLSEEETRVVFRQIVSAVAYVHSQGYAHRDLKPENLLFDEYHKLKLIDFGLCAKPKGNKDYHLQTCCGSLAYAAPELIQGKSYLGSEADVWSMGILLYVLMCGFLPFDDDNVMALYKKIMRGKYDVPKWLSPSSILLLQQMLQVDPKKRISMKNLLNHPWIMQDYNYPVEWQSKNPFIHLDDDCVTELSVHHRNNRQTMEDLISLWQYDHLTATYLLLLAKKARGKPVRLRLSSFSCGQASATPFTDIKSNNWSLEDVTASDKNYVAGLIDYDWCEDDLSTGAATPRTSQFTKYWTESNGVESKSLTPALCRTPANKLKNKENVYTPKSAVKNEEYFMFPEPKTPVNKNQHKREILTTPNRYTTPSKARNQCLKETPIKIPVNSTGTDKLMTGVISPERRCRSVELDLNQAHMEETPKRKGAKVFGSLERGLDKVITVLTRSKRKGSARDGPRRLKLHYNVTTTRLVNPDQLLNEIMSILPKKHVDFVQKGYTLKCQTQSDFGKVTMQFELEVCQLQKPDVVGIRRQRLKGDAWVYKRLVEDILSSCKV

For the molecule `Cc1cncc2cccc(S(=O)(=O)N3CCCNC[C@@H]3C)c12`, the residual activity was found to be 76% in [1]; 100% in test [2]; 100% in test [3]; 20% in [5]; 105% in test [6]; 81% in [7]. The residual activity came out at 44% in test [9], 70% in test [10], 98% in test [11] and 70% in [12]. In addition, the IC50 in test [4] amounted to 0.244 µM. Further, the inhibition in test [8] is 82%.
Consider `CCn1c(-c2nonc2N)nc2cnc(Oc3cccc(NC(=O)c4ccc(OCCN5CCOCC5)cc4)c3)cc21` [GSK-269962A], for which the residual activity was determined as 114% in [1]; 102% in test [2]; 83% in test [3]; 71% in test [5]; 122% in [6]; 98% in [7]. Further, the residual activity in test [10] was 44%; in test [11], 77%; in test [12], 2%. In addition, the IC50 in test [4] is 3.7 µM. Besides, the inhibition in test [8] turned out to be 107%.
For `CCN(CC)CCNC(=O)c1c(C)[nH]c(/C=C2\C(=O)Nc3ccc(F)cc32)c1C`, the residual activity worked out at 39% in test [7]; 5% in test [9]; 17% in test [10]; 54% in test [11]; 81% in [12].
Consider `O=S(=O)(c1cccc2cnccc12)N1CCCNCC1` [FASUDIL], for which, in test [4], the IC50 was greater than 30 µM.
In the case of `CC1=C(C(=O)Nc2cc3cn[nH]c3cc2F)C(c2ccc(C(F)(F)F)cc2)CC(=O)N1` (stereo unspecified), the residual activity turned out to be 58% in test [1]; 107% in test [2]; 97% in test [3]; 98% in [5]; 102% in test [6]; 100% in test [7]. Also, the residual activity in [9] is 102%; in [10], 83%; in test [11], 101%; in test [12] it was 40%. Further, the IC50 in [4] is greater than 100 µM. Moreover, the inhibition in test [8] turned out to be 66%.

For orientation: residual activity means the signal under treatment as a percentage of the control signal. The IC50 is the concentration at which inhibition is half-maximal. In general, inhibition refers to the relative decrease from the control value, in per cent.
